Where a name gives a salt, the structure may show the parent alone.
Tests used:
[1] = test system: Trichophyton rubrum (T. rubrum) ATCC10218; test: Antifungal activity test against dermatophytes (MIC); assay type: cell-based; conditions: 80% growth inhibiting concentration, RPMI1640/MOPS, 28° C., 4 days, WST8
Description: (§1) Measurement of the anti-trichophyton activity of the compound of the formula (I) comprised in the patch of the present invention was carried out by the following method. The compound to be evaluated was used by dissolving in dimethyl sulfoxide (DMSO). As a medium for the test, RPMI1640 medium containing 0.165M of 3-morpholinopropanesulfonic acid (MOPS) was used. As fungi to be tested, Trichophyton mentagrophytes (T. mentagrophytes) ATCC18748 or Trichophyton rubrum (T. rubrum) ATCC10218 was used. The testing fungal strain was apportioned to 100 μl with a concentration of 1×10^4 conidia/ml, mixed with a compound to be evaluated on a 96-well half area plate so that the DMSO concentration became 1%, and cultured at a cultivation temperature of 28° C. for 3 days (Trichophyton mentagrophytes) or 4 days (Trichophyton rubrum). Thereafter, 5 μl of Cell Counting Kit 8 (WST8) was added thereto, and absorbances at 450 nm and 595 nm were measured to use these as background values. Thereafter, these were cultivated at 28° C. for 5 hours (Trichophyton mentagrophytes) or overnight (Trichophyton rubrum) to cause a color, and absorbances at 450 nm and 595 nm were measured again. A growth inhibiting rate was calculated from the difference to the background values, and a 80% growth inhibiting concentration was made an MIC value (μg/ml).

[2] = test system: Trichophyton mentagrophytes (T. mentagrophytes) ATCC18748; test: as above; assay type: cell-based; conditions: 80% growth inhibiting concentration, RPMI1640/MOPS, 28° C., 3 days, WST8
Description: as §1

Compound | MIC (T. rubrum) [1] | MIC (T. mentagrophytes) [2] | MIC ([1]; Trichophyton rubrum, 96 h) | MIC ([2]; Trichophyton mentagrophytes, 72 h)
Cc1cc(C)n(-c2ccc(Cl)cc2O)n1 [compound 26] | A (≤2 μg/ml) | A (≤1 μg/ml) |  | 
CC(C)(C)c1cc(N)n(-c2ccccc2O)n1 [compound 10] | E (>64 μg/ml) | D (Inhibited 50% or more and less than 80% with 32 μg/ml) |  | 
CCC(C)(C)c1ccc(CC(C)CN2C[C@@H](C)O[C@@H](C)C2)cc1 (stereo partly shown) [Amorolfine hydrochloride, reference compound] |  |  | ≤ 2 µg/mL | ≤ 1 µg/mL
Cc1cc(C)n(-c2ccc([N+](=O)[O-])cc2O)n1 [compound 28] | C (16-32 μg/ml) | B (2 to 8 μg/ml) |  | 
CC(=O)Oc1ccc(-n2nc(C)cc2C)c(O)c1 [compound 57] | B (4-16 μg/ml) | B (2 to 8 μg/ml) |  | 
CCc1ccc(-n2nc(C)cc2C)c(O)c1 [compound 52] | A (≤2 μg/ml) | A (≤1 μg/ml) |  | 
Cc1cc(C)n(-c2ccc(F)cc2O)n1 [compound 25] | B (4-16 μg/ml) | B (2 to 8 μg/ml) |  | 
Cc1cc(C)n(-c2ccc(CO)cc2O)n1 [compound 47] | B (4-16 μg/ml) | B (2 to 8 μg/ml) |  | 
COC(=O)CCc1c(C)nn(-c2ccccc2O)c1C [compound 23] | D (>32-64 μg/ml) | C (16 to 32 μg/ml) |  | 
Cc1cc(C)n(-c2cc(Cl)ccc2O)n1 [compound 11] | D (>32-64 μg/ml) | C (16 to 32 μg/ml) |  | 
Cc1cc(C)n(-c2ccc(C(=O)O)cc2O)n1 [compound 37] | B (4-16 μg/ml) | B (2 to 8 μg/ml) |  | 
CCOC(=O)c1c(C)nn(-c2ccccc2O)c1C [compound 22] | D (>32-64 μg/ml) | C (16 to 32 μg/ml) |  | 
CCc1c(C)nn(-c2ccccc2O)c1C [compound 17] | A (≤2 μg/ml) | A (≤1 μg/ml) |  | 
Cc1ccc(O)c(-n2nc(C)cc2C)c1 [compound 49] | D (>32-64 μg/ml) | E (Inhibited less than 50% with 32 μg/ml) |  | 
Cc1nn(-c2ccc(Br)cc2O)c(C)c1Cl [compound 55] | A (≤2 μg/ml) | A (≤1 μg/ml) |  | 
Cc1nn(-c2ccc(F)cc2O)c(C)c1C [compound 18] | B (4-16 μg/ml) | B (2 to 8 μg/ml) |  | 
Cc1nn(-c2ccc(Br)cc2O)c(C)c1C [compound 56] | A (≤2 μg/ml) | A (≤1 μg/ml) |  | 
Cc1cc(C)n(-c2ccccc2O)n1 [compound 1] | B (4-16 μg/ml) | B (2 to 8 μg/ml) |  | 
Cc1nn(-c2ccc(C(N)=O)cc2O)c(C)c1C [compound 41] | D (>32-64 μg/ml) | D (Inhibited 50% or more and less than 80% with 32 μg/ml) |  | 
Cc1nn(-c2ccc(N)cc2O)c(C)c1C [compound 34] | B (4-16 μg/ml) | B (2 to 8 μg/ml) |  | 
Cc1cc(C)n(-c2c(N)cccc2O)n1 [compound 36] | D (>32-64 μg/ml) | E (Inhibited less than 50% with 32 μg/ml) |  | 
Cc1nn(-c2ccc([N+](=O)[O-])cc2O)c(C)c1C [compound 32] | B (4-16 μg/ml) | B (2 to 8 μg/ml) |  | 
Cc1cc(C)n(-c2ccc(C(=O)N(C)C)cc2O)n1 [compound 38] | B (4-16 μg/ml) | C (16 to 32 μg/ml) |  | 
Cc1cc(C(F)(F)F)nn1-c1ccccc1O [compound 5] | D (>32-64 μg/ml) | C (16 to 32 μg/ml) |  | 
Cc1ccc(-n2nc(C)cc2C)c(O)c1 [compound 44] | A (≤2 μg/ml) | A (≤1 μg/ml) |  | 

Compound | MIC (T. rubrum) [1] | MIC (T. mentagrophytes) [2] | MIC ([1]; Trichophyton rubrum, 96 h) | MIC ([2]; Trichophyton mentagrophytes, 72 h)
Cc1cc(C)n(-c2ccc(O)cc2O)n1 [compound 33] | A (≤2 μg/ml) | B (2 to 8 μg/ml) |  | 
Cc1nn(-c2ccc(C(=O)O)cc2O)c(C)c1C [compound 40] | D (>32-64 μg/ml) | E (Inhibited less than 50% with 32 μg/ml) |  | 
Cc1ccnn1-c1ccccc1O [compound 8] | E (>64 μg/ml) | C (16 to 32 μg/ml) |  | 
Oc1ccccc1-n1nc(C(F)(F)F)cc1C(F)(F)F [compound 6] | E (>64 μg/ml) | C (16 to 32 μg/ml) |  | 
Cc1cc(C)n(-c2c(O)cccc2O)n1 [compound 43] | D (>32-64 μg/ml) | E (Inhibited less than 50% with 32 μg/ml) |  | 
Cc1cc(C)n(-c2ccc(C(N)=O)cc2O)n1 [compound 39] | C (16-32 μg/ml) | C (16 to 32 μg/ml) |  | 
COc1ccc(-n2nc(C)cc2C)c(O)c1 [compound 45] | A (≤2 μg/ml) | A (≤1 μg/ml) |  | 
Cc1nn(-c2ccc(O)cc2O)c(C)c1Cl [compound 63] | A (≤2 μg/ml) | A (≤1 μg/ml) |  | 
COC(=O)c1ccc(-n2nc(C)cc2C)c(O)c1 [compound 35] | C (16-32 μg/ml) | C (16 to 32 μg/ml) |  | 
CCc1cc(CC)n(-c2ccccc2O)n1 [compound 14] | B (4-16 μg/ml) | B (2 to 8 μg/ml) |  | 
Cc1cc(C)n(-c2cc(Cl)c(C)cc2O)n1 [compound 61] | C (16-32 μg/ml) | C (16 to 32 μg/ml) |  | 
Cc1nn(-c2ccc(C(N)=O)cc2O)c(C)c1Cl [compound 42] | D (>32-64 μg/ml) | C (16 to 32 μg/ml) |  | 
Cc1nn(-c2ccccc2O)c(C)c1Cl [compound 13] | B (4-16 μg/ml) | A (≤1 μg/ml) |  | 
Cc1cc(C)n(-c2cccc(Cl)c2O)n1 [compound 12] | E (>64 μg/ml) | C (16 to 32 μg/ml) |  | 
CC(=O)Oc1ccc(-n2nc(C)c(C)c2C)c(O)c1 [compound 59] | B (4-16 μg/ml) | B (2 to 8 μg/ml) |  | 
Cc1cc(C)n(-c2ccc(N)cc2O)n1 [compound 31] | B (4-16 μg/ml) | B (2 to 8 μg/ml) |  | 
Cc1nn(-c2ccc(F)cc2O)c(C)c1Cl [compound 21] | B (4-16 μg/ml) | A (≤1 μg/ml) |  | 
CCCCc1c(C)nn(-c2ccccc2O)c1C [compound 24] | C (16-32 μg/ml) | A (≤1 μg/ml) |  | 
Cc1cc(C)n(-c2cc(O)ccc2O)n1 [compound 16] | E (>64 μg/ml) | C (16 to 32 μg/ml) |  | 
CC(=O)Oc1ccc(-n2nc(C)c(Cl)c2C)c(O)c1 [compound 58] | A (≤2 μg/ml) | B (2 to 8 μg/ml) |  | 
Cc1ccn(-c2ccccc2O)n1 [compound 7] | E (>64 μg/ml) | C (16 to 32 μg/ml) |  | 
Cc1nn(-c2ccccc2O)c(C)c1C [compound 9] | A (≤2 μg/ml) | A (≤1 μg/ml) |  | 
CNc1ccc(-n2nc(C)cc2C)c(O)c1 [compound 48] | B (4-16 μg/ml) | B (2 to 8 μg/ml) |  | 
Cc1nn(-c2cc(O)ccc2O)c(C)c1Cl [compound 19] | C (16-32 μg/ml) | C (16 to 32 μg/ml) |  | 
Cc1nn(-c2ccc(Cl)cc2O)c(C)c1C [compound 30] | A (≤2 μg/ml) | A (≤1 μg/ml) |  | 

— patent US10123978B2, “Patch for treating dermatophytosis” (MEIJI SEIKA PHARMA CO., LTD., priority 2012, dated 2018)
